# Experimental data as given in patent publication EP0912534B1, “MUSCARINIC ANTAGONISTS” (SCHERING CORPORATION, priority 1996, dated 1998).
# Key:
# [1] = target: T1, cloned human m2 muscarinic receptor (Homo sapiens, UniProt P08172); assay: Muscarinic binding activity (3H-QNB displacement), m2; conditions: Ki m2, membranes of transfected CHO cells
# T1 sequence (P08172 1-466): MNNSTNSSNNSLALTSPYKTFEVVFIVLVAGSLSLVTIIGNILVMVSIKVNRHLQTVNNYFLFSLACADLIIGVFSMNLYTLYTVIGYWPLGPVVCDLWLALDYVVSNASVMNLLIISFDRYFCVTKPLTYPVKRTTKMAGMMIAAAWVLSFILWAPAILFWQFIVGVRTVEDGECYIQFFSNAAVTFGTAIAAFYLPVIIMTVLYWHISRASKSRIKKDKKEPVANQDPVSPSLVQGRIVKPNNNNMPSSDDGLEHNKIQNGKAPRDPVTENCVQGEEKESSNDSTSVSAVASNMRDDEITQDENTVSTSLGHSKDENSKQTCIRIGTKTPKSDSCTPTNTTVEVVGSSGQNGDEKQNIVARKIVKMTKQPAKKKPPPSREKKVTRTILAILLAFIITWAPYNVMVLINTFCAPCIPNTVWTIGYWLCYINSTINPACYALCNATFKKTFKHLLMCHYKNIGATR
# [2] = target: T2, cloned human m1 muscarinic receptor (Homo sapiens, UniProt P11229); assay: Muscarinic binding activity (3H-QNB displacement), m1; conditions: Ki m1, membranes of transfected CHO cells
# T2 sequence (P11229 1-460): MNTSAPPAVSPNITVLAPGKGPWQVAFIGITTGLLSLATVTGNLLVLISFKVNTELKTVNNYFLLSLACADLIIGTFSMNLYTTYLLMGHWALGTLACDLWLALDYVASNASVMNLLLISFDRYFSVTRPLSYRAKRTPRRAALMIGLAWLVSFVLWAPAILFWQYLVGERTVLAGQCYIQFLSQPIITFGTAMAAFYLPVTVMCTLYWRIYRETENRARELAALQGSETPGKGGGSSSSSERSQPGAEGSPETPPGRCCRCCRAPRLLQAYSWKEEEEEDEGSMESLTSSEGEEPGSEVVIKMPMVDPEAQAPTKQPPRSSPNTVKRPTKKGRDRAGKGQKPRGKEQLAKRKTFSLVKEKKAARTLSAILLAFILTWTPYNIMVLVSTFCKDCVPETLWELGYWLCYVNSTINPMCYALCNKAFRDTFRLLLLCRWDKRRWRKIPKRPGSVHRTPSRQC
# [3] = system: Release of Acetyl Choline (ACh) from Striatum; assay: Microdialysis: release of acetylcholine from striatum of conscious rats; assay type: in vivo, male Sprague-Dawley Rats; conditions: 10 mg/kg peritoneal, 3 rats
# Protocol: The skull was exposed and drilled through to the dura at a point 0.2 mm anterior and 3.0 mm lateral to the bregma. At these coordinates, a guide cannula was positioned at the outer edge of the dura through the drilled opening, lowered perpendicularly to a depth of 2.5 mm, and permanently secured with dental cement to bone screws. Following the surgery, rats were given ampicillin (40 mg/kg, ip) and individually housed in modified cages. A recovery period of approximately 3 to 7 days was allowed before the microdialysis procedure was undertaken. • Microdialysis: All of the equipment and instrumentation used to conduct in vivo microdialysis was obtained from Bioanalytical Systems, Inc. (BAS). The microdialysis procedure required the insertion through the guide cannula of a thin, needle-like perfusable probe (CMA/12.3 mm x 0.5 mm) to a depth of 3 mm in striatum beyond the end of the guide. The probe was connected beforehand with tubing to a microinjection pump (CMA-/100). Rats were collared and tethered, and, following probe insertion, were placed in a large clear plexiglass bowl with litter material and access to food and water. The probe was perfused at 2 µl/min with Ringer's buffer (NaCl 147 mM; KCI 3.0 mM; CaCl2 1.2 mM; MgCl2 1.0 mM) containing 5.5 mM glucose, 0.2 mM L-ascorbate, and 1 µM neostigmine bromide at pH 7.4. To achieve stable baseline readings, microdialysis was allowed to proceed for 90 minutes prior to the collection of fractions. Fractions (20 µl) were obtained at 10-minute intervals over a 3-hour period using a refrigerated collector (CMA/170 or 200). Following the collection of four to five baseline fractions, the drug or combination of drugs to be tested was administered to the animal. Once collection was complete, each rat was autopsied to determine how accurately the probe was placed. • Acetylcholine (ACh) analysis: The concentration of ACh in collected samples of microdialysate was determined using HPLC/electrochemical detection. Samples were auto-injected (Waters 712 Refrigerated Sample Processor) onto a polymeric analytical HPLC column (BAS, MF-6150) and eluted with 50 mM Na2HPO4, pH 8.5. To prevent bacterial growth, Kathon CG reagent (0.005%) (BAS) was included in the mobile phase. Eluate from the analytical column, containing separated ACh and choline, was then immediately passed through an immobilized enzyme reactor cartridge (BAS, MF-6151) coupled to the column outlet. The reactor contained both acetylcholinesterase and choline oxidase covalently bound to a polymeric backbone. […] Data acquisition was carried out using an IBM Model 70 computer equipped with a microchannel IEEE board. Integration and quantification of peaks were accomplished using "Maxima" chromatography software (Waters Corporation). Total run time per sample was 11 minutes at a flow rate of 1 ml/min. Retention times for acetylcholine and choline were 6.5 and 7.8 minutes respectively. To monitor and correct for possible changes in detector sensitivity during chromatography, ACh standards were included at the beginning, middle and end of each sample queue.
# Increases in ACh levels are consistent with presynaptic m2 receptor antagonism.
# [4] = target: T3, cloned human m4 muscarinic receptor (Homo sapiens, UniProt P08173); assay: Muscarinic binding activity (3H-QNB displacement), m4; conditions: Ki m4, membranes of transfected CHO cells
# T3 sequence (P08173 1-479): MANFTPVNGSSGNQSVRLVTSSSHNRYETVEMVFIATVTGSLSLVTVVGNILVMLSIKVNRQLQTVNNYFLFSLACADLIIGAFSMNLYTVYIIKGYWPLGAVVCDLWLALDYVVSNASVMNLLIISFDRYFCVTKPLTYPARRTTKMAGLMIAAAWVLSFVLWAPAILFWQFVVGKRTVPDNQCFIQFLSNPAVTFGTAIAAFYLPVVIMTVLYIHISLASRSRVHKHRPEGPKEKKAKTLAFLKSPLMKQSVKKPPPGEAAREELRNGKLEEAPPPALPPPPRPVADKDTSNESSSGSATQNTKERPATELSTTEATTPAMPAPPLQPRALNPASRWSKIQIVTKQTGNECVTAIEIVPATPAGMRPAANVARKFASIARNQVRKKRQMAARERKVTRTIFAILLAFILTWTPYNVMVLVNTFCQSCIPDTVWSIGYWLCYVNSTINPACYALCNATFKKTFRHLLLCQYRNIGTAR
compound,measurement,setting,value
"COc1ccc(S(=O)(=O)c2ccc3c(c2)CCC3N2CCN(C3CCCCC3)C[C@H]2C)cc1 (single isomer, unassigned) [Compound 14]",Ki,[1],6.1 nM
same,Ki,[2],112 nM
same,Mean % of baseline,"[3]; sample collection time 20 min (control, first baseline, before injection), Isomer A",99.47 % of baseline
same,Mean % of baseline,"[3]; sample collection time 30 min (control, second baseline, before injection), Isomer A",100.85 % of baseline
same,Mean % of baseline,"[3]; sample collection time 40 min (control, third baseline, before injection), Isomer A",99.71 % of baseline
same,Mean % of baseline,"[3]; sample collection time 50 min (compounds injected at 50 minutes), Isomer A",99.20 % of baseline
same,Mean % of baseline,"[3]; sample collection time 60 min, injected at 50 min, Isomer A",100.78 % of baseline
same,Mean % of baseline,"[3]; sample collection time 70 min, injected at 50 min, Isomer A",86.66 % of baseline
same,Mean % of baseline,"[3]; sample collection time 80 min, injected at 50 min, Isomer A",95.26 % of baseline
same,Mean % of baseline,"[3]; sample collection time 90 min, injected at 50 min, Isomer A",95.90 % of baseline
same,Mean % of baseline,"[3]; sample collection time 100 min, injected at 50 min, Isomer A",102.30 % of baseline
same,Mean % of baseline,"[3]; sample collection time 110 min, injected at 50 min, Isomer A",108.24 % of baseline
same,Mean % of baseline,"[3]; sample collection time 120 min, injected at 50 min, Isomer A",85.62 % of baseline
same,Mean % of baseline,"[3]; sample collection time 130 min, injected at 50 min, Isomer A",103.94 % of baseline
same,Mean % of baseline,"[3]; sample collection time 140 min, injected at 50 min, Isomer A",99.35 % of baseline
same,Mean % of baseline,"[3]; sample collection time 150 min, injected at 50 min, Isomer A",91.47 % of baseline
same,Mean % of baseline,"[3]; sample collection time 160 min, injected at 50 min, Isomer A",90.80 % of baseline
same,Mean % of baseline,"[3]; sample collection time 170 min, injected at 50 min, Isomer A",89.0 % of baseline
same,Mean % of baseline,"[3]; sample collection time 180 min, injected at 50 min, Isomer A",83.13 % of baseline
same,Ki,[4],16 nM
"COc1ccc(S(=O)(=O)c2ccc3c(c2)CCC3N2CCN(C3CCCCC3)C[C@H]2C)cc1 (single isomer, unassigned) [Compound 15]",Ki,[1],0.11 nM
same,Ki,[2],1.23 nM
same,Mean % of baseline,"[3]; sample collection time 20 min (control, first baseline, before injection), Isomer B",98.61 % of baseline
same,Mean % of baseline,"[3]; sample collection time 30 min (control, second baseline, before injection), Isomer B",93.87 % of baseline
same,Mean % of baseline,"[3]; sample collection time 40 min (control, third baseline, before injection), Isomer B",102.42 % of baseline
same,Mean % of baseline,"[3]; sample collection time 50 min (compounds injected at 50 minutes), Isomer B",103.86 % of baseline
same,Mean % of baseline,"[3]; sample collection time 60 min, injected at 50 min, Isomer B",102.14 % of baseline
same,Mean % of baseline,"[3]; sample collection time 70 min, injected at 50 min, Isomer B",175.31 % of baseline
same,Mean % of baseline,"[3]; sample collection time 80 min, injected at 50 min, Isomer B",278.67 % of baseline
same,Mean % of baseline,"[3]; sample collection time 90 min, injected at 50 min, Isomer B",266.94 % of baseline
same,Mean % of baseline,"[3]; sample collection time 100 min, injected at 50 min, Isomer B",245.19 % of baseline
same,Mean % of baseline,"[3]; sample collection time 110 min, injected at 50 min, Isomer B",217.34 % of baseline
same,Mean % of baseline,"[3]; sample collection time 120 min, injected at 50 min, Isomer B",222.39 % of baseline
same,Mean % of baseline,"[3]; sample collection time 130 min, injected at 50 min, Isomer B",205.69 % of baseline
same,Mean % of baseline,"[3]; sample collection time 140 min, injected at 50 min, Isomer B",188.49 % of baseline
same,Mean % of baseline,"[3]; sample collection time 150 min, injected at 50 min, Isomer B",189.79 % of baseline
same,Mean % of baseline,"[3]; sample collection time 160 min, injected at 50 min, Isomer B",184.27 % of baseline
same,Mean % of baseline,"[3]; sample collection time 170 min, injected at 50 min, Isomer B",189.27 % of baseline
same,Mean % of baseline,"[3]; sample collection time 180 min, injected at 50 min, Isomer B",189.86 % of baseline
same,Ki,[4],0.27 nM
